The text below walks through data of patent US12077607B2, “Functional and therapeutic effects of PAR4 cleavage by cathepsin G” (UNIVERSITY OF UTAH RESEARCH FOUNDATION, priority 2021, dated 2024).

One assay deals with T1, WT human PAR4 (hPAR4) (Homo sapiens, UniProt Q96RI0).
T1 construct: Flag; expressed in transfected cells; host or cells: HEK293T/17 (ATCC CRL-11268)
T1 sequence (Q96RI0 18-385): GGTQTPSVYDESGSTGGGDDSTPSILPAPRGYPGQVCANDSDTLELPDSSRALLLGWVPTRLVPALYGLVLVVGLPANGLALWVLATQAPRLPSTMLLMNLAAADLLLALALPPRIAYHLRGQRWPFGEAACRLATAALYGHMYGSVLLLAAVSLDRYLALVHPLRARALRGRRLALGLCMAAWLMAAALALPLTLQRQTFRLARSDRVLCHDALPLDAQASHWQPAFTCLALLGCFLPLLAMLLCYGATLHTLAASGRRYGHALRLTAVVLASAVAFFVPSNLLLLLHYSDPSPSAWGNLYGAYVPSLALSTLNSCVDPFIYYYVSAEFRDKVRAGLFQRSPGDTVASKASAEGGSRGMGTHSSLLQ
Put plainly: PAR4 calcium flux assay in HEK293T/17 cells expressing WT PAR4. The class given is cell-based. As to conditions: CatG 2.5 μM; 100 nM vorapaxar. The protocol:
PAR4 calcium flux assays. PAR4-dependent calcium flux was measured using Fura2-QBT in platelets and HEK293T/17 cells with wild-type (WT) and mutant PAR4 (Tourdot et al., Arterioscler Thromb Vasc Biol. 2014; 34(12):2644-2650).
PAR4 mutant calcium flux assays. Using Quikchange Lightning Site-Directed mutagenesis (Agilent) per manufacturing instructions, pCMV-Flag-PAR4-S66E, pCMV-Flag-PAR4-S67E, and pCMV-Flag-PAR4-R68E were generated from mutation of pCMV-Flag-PAR4 and confirmed by sequencing (University of Utah DNA Sequencing Core). Prior to transfection, HEK293T/17 cells (ATCC CRL-11268) were seeded at 4.5×10^4/mL. The following day, cells were transfected with the plasmid of interest using Lipofectamine 2000 (Invitrogen, Carlsbad, CA, USA). Twenty-four hours after transfection, media was removed and replaced with Optimem w/Glutamax (Gibco, Carlsbad, CA, USA) containing vorapaxar (100 nM) (Cayman Chemical, Ann Arbor, MI, USA) and Fura2-QBT (Molecular Devices). Following incubation for 1 hour at 37° C., plate was placed in the Flexstation 3 (Molecular Devices) where agonists, Tyrode's Buffer, cathepsin G (2.5 μM), or α-thrombin (1.5 U/mL), were injected onto cells and calcium mobilization was monitored and recorded.
Background: A change in cytosolic calcium serves as a functional read-out for many receptors and channels.

Assay [1] concerns washed platelets. Put plainly: Platelet activation by flow cytometry (PAC-1 binding, P-selectin). The assay is classed as cell-based, human. Here is the method: Platelet isolation, aggregation, and activation. Human washed platelets were prepared and resuspended in Tyrode's Buffer at 2×10^8/mL as described (Edelstein et al., Nat Med. 2013; 19(12):1609-1616). For human and dog platelet comparisons, platelets were prepared using a modified human platelet protocol with final concentrations of […] (Cayman Chemical, Ann Arbor, MI, USA) used during centrifugation steps. Centrifugations after Tyrode's washes was decreased to 1,250×g as described in Cremer et al., PLOS One. 2019; 14(11): e0224891. Platelet aggregation was measured under stirring conditions at 37° C. using a PAP-8E aggregometer after treatment with the following agonists: arachidonic acid (Bio/Data Corporation, Horsham, PA, USA), cathepsin G, elastase, proteinase 3 (Athens Research Group), α-thrombin (Sigma, St. Louis, MO, USA), PAR-1 peptide (SFLLRN) (GL Biochem, China). P-selectin and PAC-1 were measured as previously described (Yee et al., J Thromb Haemost. 2006; 4(9):2043-2050; Tourdot et al., Arterioscler Thromb Vasc Biol. 2014; 34(12):2644-2650).
(§1) GYPGQV-NH2 (SEQ ID NO: 5), RALLLGWVPTR-NH2 (SEQ ID NO: 1), ALLLGWVPTR-NH2 (SEQ ID NO: 2), RALLLG-NH2 (SEQ ID NO: 4). Peptides were synthesized by BIOMATIK (Wilmington, DE, USA) at similar purities. All peptides were suspended in 50% DMSO and 50% ethanol. To measure platelet activation, washed platelets were stimulated with various concentrations of the peptide in the presence of CD41-APC, P-selectin (PE) and PAC-1 (FITC) for 15 minutes at 37° C. and then fixed with FACS Lysis Buffer. Samples were immediately run on a Cytoflex flow cytometer. In some experiments, platelets were stimulated with peptides and platelet aggregation performed as described above. Platelet calcium flux was induced by RALLLGWVPTR (2 mM; SEQ ID NO: 1), CatG (500 nM), ALLLGWVPTR (2 mM; SEQ ID NO: 2) or tyrodes buffer and monitored as described above.
(In general: Flow cytometry measures light scatter and fluorescence of single cells or particles in a stream.)

For assay [2], the system named is washed platelets. Put plainly: Platelet calcium flux assay. The assay is classed as cell-based, human. The settings on record: CatG 500 nM. Here is the method: Platelet calcium flux assay. Washed platelets were incubated at 37° C. for 1 hour in Tyrode's buffer (supplemented with pgel and heparin) with Fura-2AM (final concentration 2 μM). Platelets were washed and resuspended to a final concentration of 4×10^8/mL. Platelets were dispensed into a Costar 96-well half area clear bottom plate and placed in the Flexstation 3 (Molecular Devices) where cathepsin G (500 nM), buffer, or peptides (2 mM) were injected onto cells and calcium flux monitored.
as §1

[3] abbreviates: CatG stimulation, increasing concentrations.

Take “CatG: serine protease cathepsin G released by activated neutrophils”: in the assay with WT human PAR4 (hPAR4), the “CatG-induced calcium flux, WT PAR4 compared with mock transfection” value is given as “increased calcium flux”. In the assay on washed platelets [1] (setting [3]), the “P-selectin expression, PAR4 Thr120 homozygous platelets compared with Ala120” value is given as “modest but significantly greater” and the “αIIbβ3 activation, PAR4 Thr120 homozygous platelets compared with Ala120” value was “modest but significantly greater”. For the same substance, in the assay with washed platelets [1] (washed platelets, varying concentrations), the “αIIbβ3 activation (PAC-1 binding) induced by neutrophil serine protease” value was “only protease to induce”. Also, the “peak platelet calcium flux, CatG compared with RALLLGWVPTR” value with washed platelets [2] (RA-11mer 2 mM) was “similar”. The platelet calcium flux entry in the assay with washed platelets [2] (peptides 2 mM, FURA2-AM loaded washed platelets) is recorded as “decreased over time”.
